Reference: patent publication US8686021B2, “Use of a benzoyl derivative of 3-aminocarbazole for the treatment of a disorder associated with the production of prostaglandin E2 (PGE2)” (Aziende Chimiche Riunite Angelini Francesco A.C.R.A.F. …, priority 2005, dated 2014)

Legend:
production of PGE2 = assay: In-vitro activity test: inhibition of PGE2 production in IL-1β-stimulated A549 cells; type: cell-based, human; details: 18 hours
Excerpt: (§1) This test is used to evaluate capability to inhibit the production of PGE2 and selectivity with respect to the production of PGF2, for each of the compounds under examination.
(§2) Cell line A549, human lung adenocarcinoma, which is particularly sensitive to stimulation with proinflammatory cytokines such as IL-1β, and, in response to that stimulation, particularly active in the production and release of two prostanoids: PGE2 and PGF2α (Thoren S., Jakobsson P. J. “Coordinate up- and down-regulation of glutathione-dependent prostaglandin E synthase and cyclooxygenase-2 in A549 cells. Inhibition by NS-398 and leukotriene C4”, Eur. J. Biochem. 2000, 267(21):6428-6434)) was used.
(§3) The cells were stimulated with IL-1β (1 ng/ml) and at the same time treated with the compounds under test for 18 hours in an appropriate culture medium (DMEM—Dulbecco's Modified Eagles Medium) enriched with 5% bovine foetal serum and L-glutamine (4 mM final) in an incubator at 37° C. and with a CO2 concentration of 5%.
(§4) After incubation the quantities of PGE2 and PGF2α produced and released into the supernatant were determined using an EIA kit (manufactured and marketed by Cayman Chemicals, Ann Arbor, Mich., USA).
(§5) The results, shown in Table 3, are expressed as percentage inhibition of the production of PGE2 and PGF2α at a concentration of […].

production of PGF2α = assay: In-vitro activity test: inhibition of PGF2α production in IL-1β-stimulated A549 cells; type: cell-based, human; details: 18 hours
Excerpt: as §1, §2, §3, §4, §5

production of PGI2 = assay: Test on human primary endothelial cells (HUVEC): secretion of PGI2; type: cell-based
Protocol: This test is used to evaluate the ability of the compounds in Table 2 to inhibit the production of PGI2.
The absence of inhibitory activity on these prostanoids may ensure that the vasoprotective action of PGI2 is maintained and provides useful pharmacological information about the absence of adverse effects on the endothelium.
Compound 1 was used in the test.
The action of the compound under test was evaluated in HUVEC cells under basal and stimulation conditions (J. Immunol. 1989 Jun. 1; 142(11):3993-9).
The results are shown in Table 6 and are expressed as percentage inhibition in comparison with control enzyme activity.
Indomethacin was used as the reference compound.

[1] = tested on: pained behaviour induced by acetic acid in mice; assay: In-vivo activity test: acetic acid-induced stretching (nociceptive test of inflammatory origin) in mice; details: female CD-1 mice; 30 mg/kg orally in methyl cellulose (MTC), 1 hour before acetic acid i.p.; mean±SD; vehicle MTC 58 ± 5
Protocol: This test makes it possible to evaluate the activity of the compounds according to this invention in a nociceptive test of inflammatory origin. Compound 1 was used for this purpose in an experimental model which provokes pained behaviour induced by acetic acid in mice (Stock, J. L. et al., J. Clin. Inv. 2001, 107:325-331). Female CD-1 mice weighing 25-30 g were used for the test.
The animals were treated orally with compound 1 (30 mg/kg) suspended in methyl cellulose (MTC). The control animals were treated with the vehicle (MTC) alone, orally.
One hour after treatment acetic acid (0.7% v/v in physiological solution, 16 μl/g of body weight) was injected into the animals intraperitoneally to induce inflammatory pain and check the effects of the treatment on the nociceptive response.
The number of stretches, which represents the evaluation parameter for the nociceptive response, was measured immediately after the administration of acetic acid and for the next 20 minutes.

[2] = 10 μM, A549 cells stimulated with IL-1β (1 ng/ml), EIA kit
[3] = A549 cells stimulated with IL-1β
[4] = Homo sapiens, 10 μM, A549 cells stimulated with IL-1β (1 ng/ml), EIA kit

pIC50 PGE2 (production of PGE2; [3]) | pIC50 PGF2α (production of PGF2α; [3]) | SMILES | % inhibition at 10 μM PGE2 (production of PGE2; [2]) | % inhibition at 10 μM PGF2α (production of PGF2α; [2]) | also measured
– | – | CCn1c2ccccc2c2cc(NC(=O)c3cc([N+](=O)[O-])ccc3Cl)ccc21 [Compound 7] | 70% | 0% | –
– | – | CCn1c2ccccc2c2cc(NC(=O)c3c(Cl)cccc3Cl)ccc21 [Compound 6] | 89% | 51% | –
– | – | CCn1c2ccccc2c2cc(NC(=O)c3cc(Cl)ccc3Cl)ccc21 [Compound 8] | 93% | 37% | –
– | – | CCn1c2ccccc2c2cc(NC(=O)c3ccccc3)ccc21 [B, reference compound] | 46% | 40% | –
5.3 | 4.3 | CCn1c2ccccc2c2cc(NC(=O)c3ccccc3C)ccc21 [Compound 2] | 83% | 44% | –
5.7 | 4.1 | CCn1c2ccccc2c2cc(NC(=O)c3ccccc3Cl)ccc21 [Compound 1] | 82% | 16% | % inhibition, test for the secretion of PGI2, Basal (HUVEC) (production of PGI2; 10 μM, basal conditions): 0%; % inhibition, test for the secretion of PGI2, Stimulated (HUVEC) (production of PGI2; 10 μM, stimulation conditions): 0%; No. stretches in 20 min [1]: 40 ± 5
5.4 | <4 | CCn1c2ccccc2c2cc(NC(=O)c3ccccc3I)ccc21 [Compound 4] | 84% | 0% | –
– | – | COc1ccc2c(c1)c(CC(=O)O)c(C)n2C(=O)c1ccc(Cl)cc1 [Indomethacin, reference compound] | – | – | inhibition at 10 µM (production of PGI2; Homo sapiens, stimulation conditions, read-out: % inhibition, test for the secretion of PGI2, Stimulated (HUVEC)): 100%; inhibition at 10 µM (production of PGE2; [4]): 100%; IC50 (production of PGE2; Homo sapiens, A549 cells stimulated with IL-1β, read-out: pIC50 PGE2 (converted)): 5.01 nM; inhibition at 10 µM (production of PGF2α; [4]): 100%; IC50 (production of PGF2α; Homo sapiens, A549 cells stimulated with IL-1β, read-out: pIC50 PGF2α (converted)): 2.51 nM
– | – | CCn1c2ccccc2c2cc(NC(=O)c3ccccc3OC)ccc21 [A, reference compound] | 98% | 95% | –
– | – | CCn1c2ccccc2c2cc(NC(=O)c3ccccc3[N+](=O)[O-])ccc21 [Compound 5] | 27% | 0% | –
– | – | CCn1c2ccccc2c2cc(NC(=O)c3ccc(C)cc3)ccc21 [C, reference compound] | 43% | 49% | –
5.5 | <4 | CCn1c2ccccc2c2cc(NC(=O)c3ccccc3Br)ccc21 [Compound 3] | 81% | 0% | –
